Experiments:
Test in all cases: radiometric filter-binding kinase assay, Kinase HotSpot
Details in all cases: compound 0.5 µM; ATP 10 µM
ABL1 (human) = ABL1 (human) (UniProt P00519)
ACVR1B (human) = ACVR1B (human) (UniProt P36896)
AURKA (human) = AURKA (human) (UniProt O14965)
AURKC (human) = AURKC (human) (UniProt Q9UQB9)
AXL (human) = AXL (human) (UniProt P30530)
CAMK2B (human) = CAMK2B (human) (UniProt Q13554)
CAMK2D (human) = CAMK2D (human) (UniProt Q13557)
CAMKK2 (human) = CAMKK2 (human) (UniProt Q96RR4)
CDK2 CCNE1 (human) = CDK2 CCNE1 (human) (UniProt P24941+P24864)
CHEK1 (human) = CHEK1 (human) (UniProt O14757)
CLK1 (human) = CLK1 (human) (UniProt P49759)
CSNK2A1 (human) = CSNK2A1 (human) (UniProt P68400)
DAPK2 (human) = DAPK2 (human) (UniProt Q9UIK4)
DYRK1A (human) = DYRK1A (human) (UniProt Q13627)
EGFR (human) = EGFR (human) (UniProt P00533)
EPHA4 (human) = EPHA4 (human) (UniProt P54764)
EPHA5 (human) = EPHA5 (human) (UniProt P54756)
EPHB4 (human) = EPHB4 (human) (UniProt P54760)
ERBB2 (human) = ERBB2 (human) (UniProt P04626)
FGFR2 (human) = FGFR2 (human) (UniProt P21802)
FRK (human) = FRK (human) (UniProt P42685)
[1] = molecular target: JAK1 JH1 catalytic (human) (UniProt P23458)
JAK2 JH1 JH2 (human) = JAK2 JH1 JH2 (human) (UniProt O60674)
KIT (human) = KIT (human) (UniProt P10721)
LCK (human) = LCK (human) (UniProt P06239)
Sequence of LCK (human) (P06239 whole entry, looked up): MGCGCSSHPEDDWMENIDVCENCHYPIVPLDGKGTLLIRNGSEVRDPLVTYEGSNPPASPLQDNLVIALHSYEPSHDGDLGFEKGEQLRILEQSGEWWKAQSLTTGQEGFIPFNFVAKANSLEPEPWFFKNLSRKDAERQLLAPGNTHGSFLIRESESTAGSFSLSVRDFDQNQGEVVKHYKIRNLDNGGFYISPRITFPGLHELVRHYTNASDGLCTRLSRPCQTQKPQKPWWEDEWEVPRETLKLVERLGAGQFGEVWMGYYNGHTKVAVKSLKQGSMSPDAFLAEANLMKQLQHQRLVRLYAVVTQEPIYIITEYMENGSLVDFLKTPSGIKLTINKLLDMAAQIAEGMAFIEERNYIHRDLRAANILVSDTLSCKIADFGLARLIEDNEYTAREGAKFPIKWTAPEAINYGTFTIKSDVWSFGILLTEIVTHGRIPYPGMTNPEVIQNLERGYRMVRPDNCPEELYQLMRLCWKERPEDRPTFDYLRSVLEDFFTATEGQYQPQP

LIMK1 (human) = LIMK1 (human) (UniProt P53667)
MAP3K14 (human) = MAP3K14 (human) (UniProt Q99558)
Sequence of MAP3K14 (human) (Q99558 whole entry, looked up): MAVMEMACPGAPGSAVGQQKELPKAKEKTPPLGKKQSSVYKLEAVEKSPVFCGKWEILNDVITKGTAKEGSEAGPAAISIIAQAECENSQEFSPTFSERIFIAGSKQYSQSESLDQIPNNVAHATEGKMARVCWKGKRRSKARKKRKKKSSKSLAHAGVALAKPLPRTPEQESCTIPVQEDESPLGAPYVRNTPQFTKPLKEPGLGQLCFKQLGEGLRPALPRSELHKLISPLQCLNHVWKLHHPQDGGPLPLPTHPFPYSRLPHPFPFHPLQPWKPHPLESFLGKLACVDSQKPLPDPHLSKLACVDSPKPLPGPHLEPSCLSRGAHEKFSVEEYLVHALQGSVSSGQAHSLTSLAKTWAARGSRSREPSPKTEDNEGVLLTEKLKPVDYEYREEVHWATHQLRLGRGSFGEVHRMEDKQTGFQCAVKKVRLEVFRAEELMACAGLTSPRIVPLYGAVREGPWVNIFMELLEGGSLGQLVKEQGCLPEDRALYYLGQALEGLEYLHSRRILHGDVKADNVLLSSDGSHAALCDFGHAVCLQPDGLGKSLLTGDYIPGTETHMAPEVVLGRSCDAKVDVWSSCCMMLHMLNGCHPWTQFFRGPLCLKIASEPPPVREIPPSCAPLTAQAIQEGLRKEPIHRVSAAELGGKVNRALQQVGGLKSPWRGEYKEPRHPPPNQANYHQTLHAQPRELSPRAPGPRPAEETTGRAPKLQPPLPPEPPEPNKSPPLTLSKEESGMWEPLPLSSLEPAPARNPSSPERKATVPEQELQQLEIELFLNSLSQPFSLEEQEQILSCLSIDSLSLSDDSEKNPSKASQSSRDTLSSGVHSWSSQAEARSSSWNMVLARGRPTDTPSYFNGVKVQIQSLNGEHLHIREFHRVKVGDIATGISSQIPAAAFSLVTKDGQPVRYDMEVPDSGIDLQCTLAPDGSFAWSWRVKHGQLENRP

MAP4K2 (human) = MAP4K2 (human) (UniProt Q12851)
MAPK14 (human) = MAPK14 (human) (UniProt Q16539)
MAPKAPK2 (human) = MAPKAPK2 (human) (UniProt P49137)
MKNK2 (human) = MKNK2 (human) (UniProt Q9HBH9)
NEK2 (human) = NEK2 (human) (UniProt P51955)
OXSR1 (human) = OXSR1 (human) (UniProt O95747)
PAK2 (human) = PAK2 (human) (UniProt Q13177)
PASK (human) = PASK (human) (UniProt Q96RG2)
PDGFRB (human) = PDGFRB (human) (UniProt P09619)
PLK1 (human) = PLK1 (human) (UniProt P53350)
RET (human) = RET (human) (UniProt P07949)
Sequence of RET (human) (P07949 whole entry, looked up): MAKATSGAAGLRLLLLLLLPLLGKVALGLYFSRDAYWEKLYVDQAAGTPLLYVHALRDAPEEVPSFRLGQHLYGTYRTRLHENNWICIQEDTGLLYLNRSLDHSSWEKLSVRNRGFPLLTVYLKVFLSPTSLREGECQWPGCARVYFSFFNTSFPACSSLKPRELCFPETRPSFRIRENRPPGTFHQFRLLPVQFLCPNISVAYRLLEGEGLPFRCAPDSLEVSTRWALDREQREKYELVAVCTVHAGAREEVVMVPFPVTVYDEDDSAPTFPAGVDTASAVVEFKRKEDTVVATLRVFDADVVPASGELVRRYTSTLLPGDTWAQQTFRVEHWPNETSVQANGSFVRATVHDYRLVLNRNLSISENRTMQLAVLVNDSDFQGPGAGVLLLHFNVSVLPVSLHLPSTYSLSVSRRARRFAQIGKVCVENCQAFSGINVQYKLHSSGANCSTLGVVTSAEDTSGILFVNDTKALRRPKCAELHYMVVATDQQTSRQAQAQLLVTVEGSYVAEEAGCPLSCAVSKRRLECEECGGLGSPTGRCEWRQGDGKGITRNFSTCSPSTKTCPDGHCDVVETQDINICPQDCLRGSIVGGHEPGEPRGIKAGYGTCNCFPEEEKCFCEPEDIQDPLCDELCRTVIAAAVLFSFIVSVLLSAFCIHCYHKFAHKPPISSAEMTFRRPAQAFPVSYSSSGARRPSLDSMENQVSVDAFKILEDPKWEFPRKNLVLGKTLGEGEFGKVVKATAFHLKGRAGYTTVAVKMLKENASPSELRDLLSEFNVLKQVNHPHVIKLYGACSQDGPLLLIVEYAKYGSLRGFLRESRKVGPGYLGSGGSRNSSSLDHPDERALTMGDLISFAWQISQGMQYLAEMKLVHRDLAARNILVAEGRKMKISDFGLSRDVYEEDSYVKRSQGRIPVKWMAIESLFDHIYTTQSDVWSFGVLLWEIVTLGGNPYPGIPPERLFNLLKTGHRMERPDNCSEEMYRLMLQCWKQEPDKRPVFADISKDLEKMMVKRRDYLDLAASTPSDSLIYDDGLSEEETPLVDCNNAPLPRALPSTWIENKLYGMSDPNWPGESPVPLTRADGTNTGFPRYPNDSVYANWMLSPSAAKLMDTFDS

ROCK1 (human) = ROCK1 (human) (UniProt Q13464)
SRPK1 (human) = SRPK1 (human) (UniProt Q96SB4)
TTK (human) = TTK (human) (UniProt P33981)
Sequence of TTK (human) (P33981 whole entry, looked up): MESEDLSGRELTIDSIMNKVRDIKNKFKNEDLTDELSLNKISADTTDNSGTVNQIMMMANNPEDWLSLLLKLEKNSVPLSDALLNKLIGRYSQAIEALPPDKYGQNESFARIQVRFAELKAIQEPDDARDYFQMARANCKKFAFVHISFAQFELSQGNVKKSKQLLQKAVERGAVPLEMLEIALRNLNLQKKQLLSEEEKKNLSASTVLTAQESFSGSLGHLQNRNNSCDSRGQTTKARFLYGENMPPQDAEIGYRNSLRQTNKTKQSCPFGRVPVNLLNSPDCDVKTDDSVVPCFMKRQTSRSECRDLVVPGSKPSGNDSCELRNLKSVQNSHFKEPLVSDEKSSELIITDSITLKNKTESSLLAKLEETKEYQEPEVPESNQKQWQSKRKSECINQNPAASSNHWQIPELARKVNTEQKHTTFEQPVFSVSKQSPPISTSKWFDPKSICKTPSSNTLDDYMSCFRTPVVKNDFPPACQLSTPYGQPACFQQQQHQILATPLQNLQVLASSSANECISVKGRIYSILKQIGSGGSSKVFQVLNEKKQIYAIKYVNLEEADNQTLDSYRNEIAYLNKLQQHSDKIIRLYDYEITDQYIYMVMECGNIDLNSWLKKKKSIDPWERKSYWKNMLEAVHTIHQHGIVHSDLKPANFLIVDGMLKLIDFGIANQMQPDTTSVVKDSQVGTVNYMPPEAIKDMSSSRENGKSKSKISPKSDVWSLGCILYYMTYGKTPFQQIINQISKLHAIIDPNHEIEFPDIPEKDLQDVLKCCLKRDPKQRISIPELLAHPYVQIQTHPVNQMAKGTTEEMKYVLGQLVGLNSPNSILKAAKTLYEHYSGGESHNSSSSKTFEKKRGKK

TXK (human) = TXK (human) (UniProt P42681)

Sequence of CAMK2D (human) (Q13557 whole entry, looked up): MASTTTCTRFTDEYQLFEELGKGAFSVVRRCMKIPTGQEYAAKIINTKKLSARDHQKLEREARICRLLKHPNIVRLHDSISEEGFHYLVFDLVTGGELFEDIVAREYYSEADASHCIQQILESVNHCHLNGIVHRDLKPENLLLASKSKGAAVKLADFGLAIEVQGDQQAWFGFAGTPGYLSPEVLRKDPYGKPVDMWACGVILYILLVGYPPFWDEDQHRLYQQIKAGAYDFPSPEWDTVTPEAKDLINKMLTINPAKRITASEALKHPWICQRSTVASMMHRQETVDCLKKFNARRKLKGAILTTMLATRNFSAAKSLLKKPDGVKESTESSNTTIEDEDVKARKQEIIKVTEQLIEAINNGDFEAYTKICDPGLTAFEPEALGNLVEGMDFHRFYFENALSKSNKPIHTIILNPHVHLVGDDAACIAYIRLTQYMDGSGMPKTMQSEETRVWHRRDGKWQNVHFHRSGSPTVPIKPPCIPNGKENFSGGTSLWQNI
Sequence of AXL (human) (P30530 whole entry, looked up): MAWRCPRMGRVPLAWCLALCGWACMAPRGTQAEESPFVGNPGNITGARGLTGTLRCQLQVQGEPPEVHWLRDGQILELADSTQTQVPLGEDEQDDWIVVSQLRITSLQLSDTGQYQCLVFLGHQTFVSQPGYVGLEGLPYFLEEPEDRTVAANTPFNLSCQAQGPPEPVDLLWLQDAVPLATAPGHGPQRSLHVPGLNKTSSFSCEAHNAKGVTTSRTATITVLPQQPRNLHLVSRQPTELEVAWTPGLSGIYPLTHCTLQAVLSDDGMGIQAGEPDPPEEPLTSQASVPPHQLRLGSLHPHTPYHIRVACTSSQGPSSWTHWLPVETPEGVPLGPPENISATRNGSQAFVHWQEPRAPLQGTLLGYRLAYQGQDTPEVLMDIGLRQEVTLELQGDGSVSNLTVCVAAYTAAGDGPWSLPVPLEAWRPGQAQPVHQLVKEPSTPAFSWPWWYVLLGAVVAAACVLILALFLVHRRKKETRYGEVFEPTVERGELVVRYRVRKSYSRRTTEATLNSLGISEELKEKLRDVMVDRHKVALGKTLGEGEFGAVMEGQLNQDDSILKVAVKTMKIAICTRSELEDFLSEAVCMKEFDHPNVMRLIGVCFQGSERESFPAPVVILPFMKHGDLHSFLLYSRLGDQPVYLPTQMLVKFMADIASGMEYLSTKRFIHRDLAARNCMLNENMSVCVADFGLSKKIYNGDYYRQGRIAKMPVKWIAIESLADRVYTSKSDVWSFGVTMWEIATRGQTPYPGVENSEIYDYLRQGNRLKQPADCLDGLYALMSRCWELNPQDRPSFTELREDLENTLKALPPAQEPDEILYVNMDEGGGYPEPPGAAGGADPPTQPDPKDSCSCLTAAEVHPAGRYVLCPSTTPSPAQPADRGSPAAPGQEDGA

## Fc1ccc(-c2nc3n(c2-c2ccncc2)CCS3)cc1
ABL1 (human)
  residual activity: 102%
ACVR1B (human)
  residual activity: 115%
AURKA (human)
  residual activity: 92.1%
AURKC (human)
  residual activity: 102%
AXL (human)
  residual activity: 95.8%
CAMK2B (human)
  residual activity: 90%
CAMK2D (human)
  residual activity: 97.1%
CAMKK2 (human)
  residual activity: 99.9%
CDK2 CCNE1 (human)
  residual activity: 87.9%
CHEK1 (human)
  residual activity: 95.9%
CLK1 (human)
  residual activity: 103%
CSNK2A1 (human)
  residual activity: 106%
DAPK2 (human)
  residual activity: 113%
DYRK1A (human)
  residual activity: 97.5%
EGFR (human)
  residual activity: 90.7%
EPHA4 (human)
  residual activity: 106%
EPHA5 (human)
  residual activity: 89.7%
EPHB4 (human)
  residual activity: 88%
ERBB2 (human)
  residual activity: 105%
FGFR2 (human)
  residual activity: 106%
FRK (human)
  residual activity: 104%
[1]
  residual activity: 106%
JAK2 JH1 JH2 (human)
  residual activity: 93.6%
KIT (human)
  residual activity: 92.8%
LCK (human)
  residual activity: 96.2%
LIMK1 (human)
  residual activity: 89.3%
MAP3K14 (human)
  residual activity: 103%
MAP4K2 (human)
  residual activity: 109%
MAPK14 (human)
  residual activity: 43.1%
MAPKAPK2 (human)
  residual activity: 101%
MKNK2 (human)
  residual activity: 84.9%
NEK2 (human)
  residual activity: 115%
OXSR1 (human)
  residual activity: 92.5%
PAK2 (human)
  residual activity: 84.7%
PASK (human)
  residual activity: 109%
PDGFRB (human)
  residual activity: 107%
PLK1 (human)
  residual activity: 101%
RET (human)
  residual activity: 99.5%
ROCK1 (human)
  residual activity: 103%
SRPK1 (human)
  residual activity: 100%
TTK (human)
  residual activity: 100%
TXK (human)
  residual activity: 98.9%

## COc1cc2ncnc(Nc3ccc(Oc4ccccc4)cc3)c2cc1OC
ABL1 (human)
  residual activity: 81.8%
ACVR1B (human)
  residual activity: 97.5%
AURKA (human)
  residual activity: 79.2%
AURKC (human)
  residual activity: 93.9%
AXL (human)
  residual activity: 98.2%
CAMK2B (human)
  residual activity: 98.2%
CAMK2D (human)
  residual activity: 97.2%
CAMKK2 (human)
  residual activity: 104%
CDK2 CCNE1 (human)
  residual activity: 87.8%
CHEK1 (human)
  residual activity: 97.4%
CLK1 (human)
  residual activity: 100%
CSNK2A1 (human)
  residual activity: 114%
DAPK2 (human)
  residual activity: 102%
DYRK1A (human)
  residual activity: 84.6%
EGFR (human)
  residual activity: 31.6%
EPHA4 (human)
  residual activity: 106%
EPHA5 (human)
  residual activity: 85.3%
EPHB4 (human)
  residual activity: 85.5%
ERBB2 (human)
  residual activity: 29.5%
FGFR2 (human)
  residual activity: 93.7%
FRK (human)
  residual activity: 72.2%
[1]
  residual activity: 105%
JAK2 JH1 JH2 (human)
  residual activity: 95.6%
KIT (human)
  residual activity: 75.6%
LCK (human)
  residual activity: 4.72%
LIMK1 (human)
  residual activity: 89%
MAP3K14 (human)
  residual activity: 93%
MAP4K2 (human)
  residual activity: 104%
MAPK14 (human)
  residual activity: 103%
MAPKAPK2 (human)
  residual activity: 103%
MKNK2 (human)
  residual activity: 47.9%
NEK2 (human)
  residual activity: 111%
OXSR1 (human)
  residual activity: 97.5%
PAK2 (human)
  residual activity: 78.7%
PASK (human)
  residual activity: 104%
PDGFRB (human)
  residual activity: 95.6%
PLK1 (human)
  residual activity: 96.4%
RET (human)
  residual activity: 40.6%
ROCK1 (human)
  residual activity: 102%
SRPK1 (human)
  residual activity: 105%
TTK (human)
  residual activity: 90%
TXK (human)
  residual activity: 78%

Reference: the kinase profiling compilation of Christmann-Franck et al. (2016)
